Values of other authors as cited in US20070155747A1, “INHIBITORS OF FATTY ACID AMIDE HYDROLASE” (KADMUS PHARMACEUTICALS, INC., priority 2005, published 2007).

Tested on: FAAH
Settings: literature (Kathuria et al. 2003; Mor et al. 2004; WO 2004/033422)

NC(=O)c1cccc(-c2cccc(OC(=O)NC3CCCCC3)c2)c1 [KDS-4103]
inhibition of FAAH activity: potent and selective inhibitors of FAAH activity
